# Experimental data as given in patent publication US20220127297A1, “Novel Antibacterial 3"-Derivatives Of 4,6-Disubstituted 2,5-Dideoxystreptamine Aminoglycoside Antibiotics” (AGILeBiotics B.V., priority 2018, published 2022).
# Columns and labels:
# Experiment in all cases: MIC determination at Uppsala University
# Assay type in all cases: cell-based
# P. aeruginosa PAO1 = conditions: Pseudomonas aeruginosa, AMEs: WT
# Text: (§1) 3.4.1 MIC Determination at Uppsala University (Sweden)
# (§2) Tested reference compounds. Amikacin disulfate (Cat. No. A1774, Sigma Aldrich), Apramycin sulfate (Cat. No. A2024, Sigma Aldrich) and Gentamicin sulfate (Cat. No. G1914, Sigma Aldrich).
# (§3) Bacterial strains/isolates. All assayed laboratory and clinical strains (P. aeruginosa PA01, A. baumanii ATCC 19606, A. baumanii 195N(a), A. baumanii 48F, E. coli C1162, E. coli C1181, M. morgannii S49 and P. stuartii B8-1) were from the IMI ND4BB ENABLE consortium strain collection. ATCC laboratory strains were acquired directly from the American Type Culture Collection. Clinical strains used were previously published (M Juhas, et al. J. Antimicrob. Chemother., 74 (4), 944-952 (2019); D. Hughes et al., Antimicrob. Agents Chemother., 47 (10), 3222-3232 (2003)) and were resistance genotyped within the ENABLE consortium.
# (§4) Culture media and equipment. Water (Thermo Scientific, R05819); Mueller-Hinton II broth (BD Ref. 212322); sterile round-bottom 96-well plates (Thermo Scientific, 262162); Sensititre Nephelometer (ThermoFisher Scientific, V3011); 0.5 McFarland Standard (ThermoFisher Scientific, E1041); sterile polyester film (VWR, 391-1251).
# (§5) Compound preparation. MIC assay procedure follows the CLSI M07 standard method (Clinical and Laboratory Standards Institute (CLSI); Methods for dilution antimicrobial susceptibility tests for bacteria that grow aerobically; approved standard—eleventh edition, M07-A10, Vol. 38, No. 2, 2018). Test compounds were received as solids and were dissolved in water to a concentration of 10 mg/mL of active compound. […] This solution was serially diluted in 2-fold steps in the first 10 columns of sterile round-bottom 96-well plates, while the final two columns were filled with Mueller-Hinton II broth without added compound for use as positive and negative growth controls.
# (§6) Inoculum preparation. Inoculums were prepared by suspending several colonies freshly streaked culture of test strains in 5 mL of sterile 0.9% NaCl. The cell density of the inoculum solution was assessed and adjusted using a Sensititre Nephelometer and a 0.5 McFarland Standard. The inoculum was diluted 1:100 in Mueller-Hinton II broth and 50 μL of this inoculum solution was added to 50 μL of the test compound solutions yielding a concentration range of 64-0.125 μg/mL. The plates were sealed with sterile polyester film and stationarily incubated at 37° C. for 18 hours.
# (§7) MIC determination. The MIC value was determined by visual inspection of bacterial growth within 96-well plates. The lowest concentration completely inhibiting growth was reported as the MIC for each strain and compound combination.
# E. coli C1162 = conditions: Escherichia coli, APH(3′)-Ia
# Text: as §1, §2, §3, §4, §5, §6, §7
# A. baumanii 48F = conditions: Acinetobacter baumannii; A. boumanii 48F; ANT(2″)Ia, APH(3″)-Ib, APH(3′)-VIa, APH(6)-Id
# Text: as §1, §2, §3, §4, §5, §6, §7
# P. stuartii B8-1 = conditions: Providencia stuartii, B81, AAC(3)-Ic, ANT (3″)Ia, APH(3′)-IIa, APH(3′)-IIb, APH(3′)-VI, APH(6)-Ic
# Text: as §1, §2, §3, §4, §5, §6, §7
# A. baumanii ATCC 19606 = conditions: Acinetobacter baumannii, ATCC19606, AMEs: WT
# Text: as §1, §2, §3, §4, §5, §6, §7
# A. baumanii 195N (a) = conditions: Acinetobacter baumannii, AAC(3)Ia, ANT(3″)Ia, APH(3″)Ib, APH(3′)VI, APH(6)Id
# Text: as §1, §2, §3, §4, §5, §6, §7
# E. coli C1181 = conditions: Escherichia coli, ANT(3″)-Ia, APH(3′)-Ia
# Text: as §1, §2, §3, §4, §5, §6, §7
# M. morgannii S49 = conditions: Morganella morganii, AAC(3)-IId, ANT(3″), APH(3″)-Ib, APH(3′)-Ia, APH(6)-Id
# Text: as §1, §2, §3, §4, §5, §6, §7
Structure (SMILES),MIC90 (P. aeruginosa PAO1) [µg/mL],MIC90 (E. coli C1162) [µg/mL],MIC90 (A. baumanii 48F) [µg/mL],MIC90 (P. stuartii B8-1) [µg/mL],MIC90 (A. baumanii ATCC 19606) [µg/mL],MIC90 (A. baumanii 195N (a)) [µg/mL],MIC90 (E. coli C1181) [µg/mL],MIC90 (M. morgannii S49) [µg/mL]
"N=C(N)NC1C(O)[C@@H](CO)OC(OC2C(F)[C@H](O[C@H]3OC(CN)[C@@H](O)CC3N)C(N)C[C@H]2NC(=O)[C@@H](O)CCN)[C@@H]1O (some centres unmarked) [ABX5006, Tobra-AHB-F-Gua]",1,1,4,4,8,4,1,1
"N=C(NC[C@@H]1CCCN1)NC1[C@@H](O)C(OC2[C@@H](F)[C@H](O[C@H]3OC(CN)[C@@H](O)CC3N)C(N)C[C@H]2NC(=O)[C@@H](O)CCN)O[C@H](CO)[C@H]1O (stereo partly drawn) [ABX5026, Tobra-AHB-F-Gua (S) pyrrolidine-2-yl-methyl]",1,1,4,2,8,8,0.5,2
"N=C(NC[C@@H]1CCNC1)NC1[C@@H](O)C(OC2[C@@H](F)[C@H](O[C@H]3OC(CN)[C@@H](O)CC3N)C(N)C[C@H]2NC(=O)[C@@H](O)CCN)O[C@H](CO)[C@H]1O (stereo partly drawn) [ABX5039, Tobra-AHB-F-Gua (R) pyrrolidine-3-ylmethyl]",1,1,4,2,8,4,0.5,1
"NCC[C@H](O)C(=O)N[C@@H]1C[C@H](N)[C@@H](O[C@H]2O[C@H](CN)[C@@H](O)[C@H](O)[C@H]2O)[C@H](O)[C@H]1O[C@H]1O[C@H](CO)[C@@H](O)[C@H](N)[C@H]1O [Amikacin, amikacin, reference compound]",4,4,> 64,> 64,16,> 64,4,4
